In PubChem BioAssay (NCI):
Where “and” joins values, the source holds several entries; their conditions need not be identical. Equal entries are not always repeated.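 Five compound concentrations were applied to cells in 96-well plates for 48 hours; endpoints were derived by simple linear interpolation of the resulting dose-response curve. GI50 is the concentration that inhibits growth by half. TGI marks complete inhibition of growth.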

What was measured:
Experiment in all cases: NCI tumour cell line growth inhibition, 48 h
[1] = system: SW-620 colon
[2] = system: A498 renal
[3] = system: A549 NSCLC
[4] = system: NCI-H460 lung
[5] = system: DU-145 prostate
[6] = system: MALME-3M melanoma
[7] = system: OVCAR-5 ovarian
[8] = system: EKVX NSCLC
[9] = system: SR leukemia
[10] = system: SNB-19 CNS
[11] = system: ACHN renal
[12] = system: 786-0 renal
[13] = system: T-47D breast
[14] = system: HOP-92 NSCLC
[15] = system: HT29 colon
[16] = system: NCI-H522 lung
[17] = system: OVCAR-4 ovarian
[18] = system: HL-60(TB) leukemia
[19] = system: MCF7 breast
[20] = system: IGROV1 ovarian
[21] = system: HCC-2998 colon
[22] = system: HCT-116 colon
[23] = system: COLO 205 colon
[24] = system: SN12C renal
[25] = system: SK-MEL-2 melanoma
[26] = system: HCT-15 colon
[27] = system: RXF 393 renal
[28] = system: TK-10 renal
[29] = system: K-562 leukemia
[30] = system: PC-3 prostate
[31] = system: SF-295 CNS
[32] = system: SNB-75 CNS
[33] = system: SF-539 CNS
[34] = system: SF-268 CNS
[35] = system: MOLT-4 leukemia
[36] = system: UACC-257 melanoma
[37] = system: OVCAR-8 ovarian
[38] = system: UACC-62 melanoma
[39] = system: KM12 colon
[40] = system: U251 CNS
[41] = system: UO-31 renal
[42] = system: SK-MEL-28 melanoma
[43] = system: MDA-MB-435
[44] = system: OVCAR-3 ovarian
[45] = system: MDA-MB-231 breast
[46] = system: CCRF-CEM leukemia
[47] = system: SK-MEL-5 melanoma
[48] = system: RPMI-8226 leukemia
[49] = system: NCI-H23 lung
[50] = system: NCI/ADR-RES ovarian
[51] = system: SK-OV-3 ovarian
[52] = system: HS 578T breast
[53] = system: BT-549 breast
[54] = system: HOP-62 NSCLC
[55] = system: M14 melanoma
[56] = system: CAKI-1 renal
[57] = system: NCI-H226 lung
[58] = system: LOX IMVI melanoma

SMILES: C/C(=C\c1csc(C)n1)[C@@H]1C[C@@H]2O[C@]2(C)CCC[C@H](C)[C@H](O)[C@@H](C)C(=O)C(C)(C)[C@@H](O)CC(=O)O1
- TGI [1]: 16.1 µM
- TGI [2]: 0.116 µM
- TGI [3]: > 100 µM
- TGI [4]: > 100 µM
- TGI [5]: 0.000139 µM
- TGI [6]: > 100 µM
- TGI [7]: > 100 µM
- TGI [8]: > 100 µM
- TGI [9]: < 0.0001 µM
- TGI [10]: > 100 µM
- TGI [11]: > 100 µM
- TGI [12]: > 100 µM
- TGI [13]: > 100 µM
- TGI [14]: 0.0263 µM
- TGI [15]: < 0.0001 µM
- TGI [16]: < 0.0001 µM
- GI50 [17]: 60.1 µM
- TGI [17]: > 100 µM
- TGI [18]: < 0.0001 µM
- TGI [19]: 0.0112 µM
- TGI [20]: > 100 µM
- TGI [21]: < 0.0001 µM
- TGI [22]: > 100 µM
- TGI [23]: < 0.0001 µM
- TGI [24]: > 100 µM
- TGI [25]: 33.7 µM
- TGI [26]: 0.00447 µM
- TGI [27]: 0.00418 µM
- TGI [28]: 44.8 µM
- TGI [29]: 0.274 µM
- TGI [30]: > 100 µM
- TGI [31]: < 0.0001 µM
- TGI [32]: < 0.0001 µM
- TGI [33]: < 0.0001 µM

SMILES: CC(=O)C1CC[C@@H]2[C@H](CC[C@]3(C)[C@@H](O)CC[C@@H]23)[C@H]1C(=O)O (some centres undefined)
- TGI [34]: > 100 µM
- TGI [35]: > 100 µM
- TGI [36]: > 100 µM
- TGI [37]: > 100 µM
- TGI [1]: > 100 µM
- TGI [2]: > 100 µM
- TGI [3]: > 100 µM
- TGI [38]: > 100 µM
- TGI [39]: > 100 µM
- TGI [40]: > 100 µM
- TGI [4]: > 100 µM
- TGI [6]: > 100 µM
- TGI [7]: > 100 µM
- TGI [8]: > 100 µM
- TGI [9]: > 100 µM
- TGI [10]: > 100 µM
- TGI [41]: > 100 µM
- TGI [42]: > 100 µM
- TGI [43]: > 100 µM
- TGI [14]: > 100 µM
- TGI [44]: > 100 µM
- TGI [15]: > 100 µM
- TGI [16]: > 100 µM
- TGI [45]: > 100 µM
- TGI [17]: > 100 µM
- TGI [18]: > 100 µM
- TGI [46]: > 100 µM
- TGI [19]: > 100 µM
- TGI [47]: > 100 µM
- TGI [48]: > 100 µM
- TGI [49]: > 100 µM
- TGI [20]: > 100 µM
- TGI [21]: > 100 µM
- TGI [50]: > 100 µM
- TGI [23]: > 100 µM
- TGI [51]: > 100 µM
- TGI [52]: > 100 µM
- TGI [53]: > 100 µM
- TGI [25]: > 100 µM
- TGI [26]: > 100 µM
- TGI [54]: > 100 µM
- TGI [27]: > 100 µM
- TGI [28]: > 100 µM
- TGI [55]: > 100 µM
- TGI [29]: > 100 µM
- TGI [30]: > 100 µM
- TGI [31]: > 100 µM
- TGI [56]: > 100 µM
- TGI [33]: > 100 µM

SMILES: CC(=O)Nc1ccc(/C=C/C(=O)N2CC(CCl)c3c2cc(N)c2ccccc32)cc1 (centres undefined)
- TGI [34]: 0.0208 µM
- TGI [35]: 50 µM
- TGI [37]: 0.0741 µM
- TGI [1]: 0.509 µM
- TGI [2]: 0.00609 µM
- TGI [39]: 50 µM and > 100 µM
- TGI [5]: 0.135 µM
- TGI [6]: 0.00756 µM
- TGI [8]: 0.0576 µM
- TGI [9]: 50 µM
- TGI [10]: 0.0269 µM and 0.111 µM
- TGI [12]: 0.0124 µM
- TGI [14]: 0.00989 µM
- TGI [44]: 5.56 µM
- TGI [15]: 0.0384 µM
- TGI [16]: 0.00671 µM
- TGI [17]: 9.18 µM
- TGI [46]: 50 µM
- TGI [19]: 50 µM and > 100 µM
- TGI [47]: 0.00589 µM
- TGI [48]: 50 µM
- TGI [20]: 0.614 µM
- TGI [21]: 0.0427 µM and 0.129 µM
- TGI [22]: 0.14 µM
- TGI [57]: 0.0292 µM
- TGI [23]: 0.0362 µM
- TGI [51]: 0.573 µM and 0.3 µM
- TGI [53]: 0.0326 µM and 0.0218 µM
- TGI [24]: 0.0072 µM
- TGI [58]: 0.097 µM
- TGI [26]: 50 µM
- TGI [54]: 0.0145 µM
- TGI [28]: 18.7 µM
- TGI [55]: 0.00795 µM
- TGI [29]: 50 µM
- TGI [31]: 38.5 µM
